Consider 30 compounds from paper PMC7476584, “Lipophilicity trends upon fluorination of isopropyl, cyclopropyl and 3-oxetanyl groups” (Beilstein Journal of Organic Chemistry, 2020).

The structures appear in SMILES notation. Where “and” joins values, the source holds several entries; their conditions need not be identical. Identical values can stand only once. Like-named read-outs stand apart in the source and are kept apart here.

In general, logP refers to the decadic logarithm of the partition coefficient of the neutral form, usually between octanol and water.

For data set [1] the following is noted: cited from earlier work.
The conditions of data set [2]: Table S1; ref Hansch, Leo, Hoekman, Exploring QSAR, 1995; cited from earlier work.
The conditions of data set [3]: SMD implicit solvation, MN15; values taken from the literature; cited from earlier work.
Data set [4] can be described thus: 19F NMR-based octanol/water logP determination. The conditions noted are these: for logP: n-octanol/water; for logP / logP (individual measurement): octanol/water, 25 °C, 19F NMR.
On the set-up of data set [5]: method as in PMID 31414105, PMID 29999054. The conditions noted are these: series B, reversed-phase HPLC; cited from earlier work.
Data set [6] is described as follows: Shake-flask lipophilicity (logP, logD7.4) of literature examples. The conditions noted are these: geminal dimethyl 1 to cyclopropyl 2. The class given is physicochemical.
Where [7] appears, read: logP (average logP), triplicate.
Where [8] appears, read: logP (individual measurement), single experiment.
[9] abbreviates: logP average with error (standard deviation), triplicate, column Error.

As for `CN(C)CCCCc1ccc(C(C)(C)C)cc1` [compound 3], in data set [1] (pH 7.4), the logD7.4 is given as 2.5.

With `CC(C)C(C)O` (centres unmarked) [3-methyl-2-butanol], the “Experimental logP for selected nonfluorinated alkanols” value in data set [2] is listed as 1.28.

Regarding `CC(CO)CF` (centres unmarked) [D3, 3-fluoro-2-methylpropan-1-ol], the lipophilicity (logP) turned out to be 0.29 in “physchem” (logP (average logP)), 0.28 in “physchem” (logP (individual measurement)) and 0.289 in the data set “physchem” (logP average with error (standard deviation)).

Regarding `OCCC(F)(F)CF` [G8], the “logPtheor (DFT)” value in data set [3] is reported as 1.30.

In the case of `C[C@@](CCN1Cc2cc(C#CC#C[C@@H]3C[C@H]3CO)cn2C1=O)(C(=O)NO)S(C)(=O)=O` [7c], in data set [1] (pH 7.4), the logD7.4 was 1.1.

On to `CN(C)CCCCc1ccc(C2(C)COC2)cc1` [compound 4], for which, in data set [1] (shake-flask), the logD7.4 is given as -0.1 and the logP was 2.4.

As to `CCCC(O)CC` (centres unmarked) [3-hexanol], the “Experimental logP for selected nonfluorinated alkanols” value in data set [2] is reported as 1.65.

For `CC(CO)C(F)(F)F` (centres unmarked) [D5, 3,3,3-trifluoro-2-methylpropan-1-ol], the log partition coefficient (logP) in data set [4] (setting [7]) is 0.98; in data set [4] (setting [8]) it was 0.977; in data set [4] (setting [9]), 0.978. Besides, in data set [4] (single experiment), the “logP (individual measurement)” value was “+0.978 and +0.979”.

As for `CC(C)(C)CO` [2,2-dimethylpropan-1-ol], the “Experimental logP for selected nonfluorinated alkanols” value in data set [2] is 1.31.

On to `FC1(F)CC1c1ccccc1` (centres unmarked) [B6], for which, in data set [5], the lipophilicity (logP) result is on record as “+2.91”.

In the case of `c1ccc(C2CC2)cc1` [B1], in data set [5], the lipophilicity (logP) entry is “+3.40”.

With `CN(C)CCCCc1ccc(C2COC2)cc1` [C1], in data set [1] (pH 7.4), the logD7.4 result is “–0.1”.

`CC(C)(F)CO` [D2, 2-fluoro-2-methylpropan-1-ol]: the “Δ logP branched vs linear” value in data set [4] (D2 vs G2) came to 0.16. Also, the logP in data set [4] (setting [7]) stood at 0.1; in data set [4] (setting [8]), 0.11; in data set [4] (setting [9]) it was 0.104. Also, the “logP (individual measurement)” value in data set [4] (single experiment) is given as “+0.10”.

For the compound `CCCCCCCO` [1-heptanol], the “Experimental logP for selected nonfluorinated alkanols” value in data set [2] was 2.72.

As for `C[C@@](CCN1Cc2cc(C#CC#C[C@H]3C[C@@H]3CO)cn2C1=O)(C(=O)NO)S(C)(=O)=O` [7a], in data set [1] (pH 7.4), the logD7.4 is 1.3.

Take `CCCCC(C)O` (centres unmarked) [2-hexanol]: the “Experimental logP for selected nonfluorinated alkanols” value in data set [2] was 1.76.

In the case of `F[C@@H]1[C@H](F)[C@@]1(F)c1ccccc1` [B2], in data set [5], the logP result is reported as “+2.56”.

For `CCCC(O)CCC` [4-heptanol], in data set [2], the “Experimental logP for selected nonfluorinated alkanols” value is 2.22.

With `CCC(O)CC` [3-pentanol], the “Experimental logP for selected nonfluorinated alkanols” value in data set [2] was 1.21.

For `CN(C)CCCCc1ccc(C2(F)COC2)cc1` [C2], the logD7.4 result in data set [1] (pH 7.4) is reported as “–0.5”.

On to `OCCC(F)CF` (centres unmarked) [G7, 3,4-difluorobutan-1-ol], for which the “logPtheor (DFT)” value in data set [3] is 1.06.

For the compound `C[C@@](CCN1Cc2cc(C#CC#C[C@H]3C[C@]3(F)CO)cn2C1=O)(C(=O)NO)S(C)(=O)=O` [7b], the logD7.4 in data set [1] (pH 7.4) was 0.9.

As to `C[C@@](CCN1Cc2cc(C#CC#C[C@@H]3C[C@@]3(F)CO)cn2C1=O)(C(=O)NO)S(C)(=O)=O` [7d], in data set [1] (pH 7.4), the logD7.4 is 0.9.

Turning to `OCC1(F)CC1` [E2, (1-fluorocyclopropyl)methanol], the logP reduction in data set [4] (G9 to E2) was 0.72 logP units. The results for the logP in data set [4] (setting [7]) and in data set [4] (setting [9]) were -0.05 and -0.054, respectively. For the same compound, the “logP (individual measurement)” value in data set [4] (single experiment) is -0.06.

In the case of `O=C(c1ccc(CN2CCOCC2)cc1)N1CCN(C2CC2)CC1` [compound 2], in data set [6], the ΔlogD7.4 entry is reported as “+0.73” and the ΔlogP entry is given as “+0.34”.

As to `CCCCC(O)CCC` (centres unmarked) [4-octanol], the “Experimental logP for selected nonfluorinated alkanols” value in data set [2] was 2.68.

Turning to `FC1(F)CC1(F)c1ccccc1` (centres unmarked) [B7], the logP result in data set [5] is on record as “+2.94”.

`CCCCCC(C)O` (centres unmarked) [2-heptanol]: the “Experimental logP for selected nonfluorinated alkanols” value in data set [2] is reported as 2.31.

Take `CCCCCCC(C)O` (centres unmarked) [2-octanol]: in data set [2], the “Experimental logP for selected nonfluorinated alkanols” value is 2.90.

`CC(CO)C(F)F` (centres unmarked) [D4, 3,3-difluoro-2-methylpropan-1-ol]: the log partition coefficient (logP) turned out to be 0.58 in data set [4] (setting [7]), 0.583 in data set [4] (setting [8]) and 0.583 in data set [4] (setting [9]). In data set [4] (single experiment), the “logP (individual measurement)” value was “+0.576 and +0.589”.
